Measured values published in US4845123A, “Reduction in vivo of the inappropriate levels of endogenous and environmental-derived compounds by sustained-release inhibitors of β- g” (priority 1985, dated 1989).

Assays:
Organ DNA = assay: in vivo covalent binding of [14C]BP to organ DNA; design: species or system rat; conditions: for Covalent Binding Index (of BP), +DAGDL: DAGDL 1.5 mmol/kg 0.5 hours before [14C]BP; for inhibition at 1500 µmol/kg: Rattus norvegicus, DAGDL 1.5 mmol/kg
Method: Experimental rats were pretreated 0.5 hours earlier with one dose of 1.5 mmol/kg body weight of DAGDL which was administered by stomach tube as a suspension in 1.0 ml of sesame oil, while control rats received the vehicle only. The experimental and control group contained 2 rats each. Heart, kidney, liver, lung and mammary gland were removed under ether anesthesia 48 hours post-administration of BP. The DNA was isolated immediately and purified by chloroform phenol extraction of organ homogenates. In the case of mammary gland, the homogenate was treated with collagenase II. Following purification with ribonuclease A and protease K, the DNA concentration was estimated by U.V. absorption and the bound radioactivity was determined by radioassay in liquid scintillant.
In this experiment 50 day old female rats of the Sprague Dawley strain received 1.5 mmol/kg of DAGDL 0.5 hours before the intraperitoneal injection of 7.9 μmol/kg of [^14 C]BP. The DNA was extracted from the tissues and radioassayed by established procedures.

[1] = test system: diabetes, rheumatoid arthritis, toxemia in pregnancy and bladder cancer; conditions: review of the medical literature; cited from earlier work
bladder tumors = conditions: Boyland et al. 1964 (GL); Katayama 1972 (DAGDL); cited from earlier work
[2] = test system: tumor initiation by 7,12-dimethylbenzanthracene (DMBA); conditions: Walaszek et al. 1984; cited from earlier work
[3] = acute toxicity (weight loss) of N-methylnitrosourea; assay type: in vivo, rat; conditions: 21 days after treatment with MNU
serum β-glucuronidase = molecular target: T1, serum β-glucuronidase (Rattus norvegicus, UniProt P06760); conditions: Iida et al. 1965; cited from earlier work
T1 sequence (P06760 23-648): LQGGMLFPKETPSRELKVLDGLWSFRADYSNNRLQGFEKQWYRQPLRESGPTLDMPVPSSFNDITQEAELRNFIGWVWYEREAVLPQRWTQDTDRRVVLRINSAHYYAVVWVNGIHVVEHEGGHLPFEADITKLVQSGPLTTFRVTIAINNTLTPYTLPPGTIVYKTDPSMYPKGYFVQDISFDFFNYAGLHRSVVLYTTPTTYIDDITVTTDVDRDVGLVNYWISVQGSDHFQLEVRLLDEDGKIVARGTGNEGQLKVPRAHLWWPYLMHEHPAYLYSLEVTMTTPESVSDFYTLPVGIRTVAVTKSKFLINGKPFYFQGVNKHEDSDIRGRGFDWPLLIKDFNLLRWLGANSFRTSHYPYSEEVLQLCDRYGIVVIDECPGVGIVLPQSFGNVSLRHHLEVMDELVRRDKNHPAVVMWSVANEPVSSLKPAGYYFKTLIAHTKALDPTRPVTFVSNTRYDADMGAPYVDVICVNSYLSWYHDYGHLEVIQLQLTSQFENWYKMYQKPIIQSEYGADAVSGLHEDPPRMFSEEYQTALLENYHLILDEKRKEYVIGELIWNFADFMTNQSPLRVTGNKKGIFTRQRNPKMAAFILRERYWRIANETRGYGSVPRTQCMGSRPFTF

[4] = test system: MNU-induced mammary tumors; assay: MNU-induced mammary carcinogenesis; assay type: in vivo, rat; conditions: MNU 40 mg/kg i.v., DAGDL 2 dose schedule; FIG. 10
Method: In this experiment, MNU (40 mg/kg) was administered to 50 day old Sprague Dawley female rats by i.v. injection. One half of the rats were co-administered DAGDL according to a 2 dose schedule.

bladder tumor = conditions: Miyakawa et al. 1973; DAGDL given at same time as carcinogen; cited from earlier work
[5] = Furuno et al. 1975; cited from earlier work
[6] = rat, in vivo, ip
Method: TCDD was administered i.p. in a single dose of 40 μg/kg in sesame oil (0.5 ml) to 125 gm female Sprague Dawley rats. One group of 4 rats received 2 doses of CGT (4.5 mmole/kg) in sesame oil (1.0 ml) by stomach tube at 3 hours and a second dose at 0.5 hours before treatment with TCDD. A second, TCDD-treated group received oil only in place of the CGT. Control rats received oil only by stomach tube and i.p. injection.

[7] = test system: DMBA-induced mammary tumors; assay: DMBA-induced mammary tumorigenesis, initiation, promotion and tumor regression; assay type: in vivo, rat
Method: Fifty day old female Sprague Dawley rats were utilized in these experiments. For induction of mammary tumors the rats received a single dose of 130 mg/kg of DMBA in sesame oil by gavage. Animals pretreated with CGT received 4.5 mmoles/kg of CGT in sesame oil at 3 hours and again at 0.5 hours before administration of the carcinogen. This protocol tests the inhibitory effect of CGT on the initiation phase. Alternatively, the rats were fed a standard chow diet supplemented with 10% CGT (w/w). To evaluate the effect of CGT on the promotion phase the rats were changed from the chow diet to the CGT supplemented diet two weeks after treatment with DMBA. One mole of glucarate is converted to approximately one-third of a mole of GL in an equilibrated aqueous solution.
The mammary tumors were measured with micrometer calipers. Two measurements were taken, the longest dimension and dimension at right angles to this parameter.
At this time, the rats were transferred from a chow diet to a chow diet supplemented with 10% CGT. This diet was continued until the termination of the experiment. […] Three groups each, with eighteen 50 day old rats, were given intragastrically a single dose of 20 mg of DMBA in 1.0 ml of sesame oil. One group ( -- ) received 4.5 mmoles/kg of CGT by stomach tube at 3 hours and again at 0.5 hours before DMBA. A second (control) group (.circle.O--O.circle.) received vehicle (i.e. sesame oil) only at the same two time periods. Both of these groups were then put on regular chow diet.

With `CC(=O)O[C@@H]1C(=O)O[C@H]2[C@@H]1OC(=O)[C@@H]2OC(C)=O` [DAGDL, 2,5-di-O-acetyl-D-glucaro-1,4;6,3-dilactone] the “Covalent Binding Index (of BP), +DAGDL” value (Organ DNA; Heart) was 10, the “Covalent Binding Index (of BP), +DAGDL” value (Organ DNA; Kidney) was 12 and the “Covalent Binding Index (of BP), +DAGDL” value (Organ DNA; Liver) was 9. For the same compound, the “Covalent Binding Index (of BP), +DAGDL” value (Organ DNA; Lung) was 8, the “Covalent Binding Index (of BP), +DAGDL” value (Organ DNA; Mammary gland) was 20 and the inhibition at 1500 µmol/kg (Organ DNA; Heart) was 44%. The inhibition at 1500 µmol/kg (Organ DNA; Kidney) was 69%, the inhibition at 1500 µmol/kg (Organ DNA; Liver) was 63% and the inhibition at 1500 µmol/kg (Organ DNA; Lung) was 72%. For the same compound, the inhibition at 1500 µmol/kg (Organ DNA; Mammary gland) was 47%, the “treatment of existing diseases” value [1] was “unsuccessful” and the “clinical effect in prevention of bladder tumors” value (bladder tumors) was “only a slight beneficial effect”. For the same compound, the “effect on initiation of tumor by DMBA” value [2] was “inhibited”, the “difference in toxicity-induced weight loss of DAGDL-treated and non-treated rats” value [3] was “approximately 100 g” and the “potency as in vivo β-glucuronidase inhibitor” value (serum β-glucuronidase) was “potent”. The “inhibition of mammary tumor development” value [4] was “approx. 4 fold”, the “effect on bladder tumor incidence with 2-AAF” value (bladder tumor) was “did not disclose any significant difference” and the “clearance of antibiotics which cause kidney damage” value [5] was “inconclusive results”.

In the case of `O=C([O-])[C@@H](O)[C@@H](O)[C@H](O)[C@@H](O)C(=O)[O-].[Ca+2]` [CGT, calcium D-glucarate], the “effect on TCDD toxicity” value [6] is reported as “definite anti-"TCDD toxicity" effect”, the “effect on DMBA-induced tumors which escape the anti-promoter effects” value ([7]; 10% CGT diet) is reported as “significant regression” and the “reduction of the overall tumor incidence due to tumor regression” value ([7]; 10% CGT diet) is reported as 14%. For the same compound, the “effect on promotion phase of DMBA-induced mammary carcinogenesis” value ([7]; 10% CGT diet from 2 weeks post-DMBA) was “significantly inhibits the promotion phase”, the “tumor induction as percent of that in the controls” value ([7]; 10% CGT diet from 2 weeks post-DMBA (promotion phase), by 28 weeks) was 30% and the “Average Tumor Volume” value ([7]; 10% CGT diet, 16 wks (spread ± 0.57 on separate line)) was 2.82 cm^3. The “Average Tumor Volume” value ([7]; 10% CGT diet, 20 wks (spread ± 0.76 on separate line)) was 2.17 cm^3, the “Average Tumor Volume” value ([7]; 10% CGT diet, 24 wks (spread ± 0.87 on separate line)) was 1.87 cm^3 and the “Average Tumor Volume” value ([7]; 10% CGT diet, 28 wks) was 1.20 ± 0.82 cm^3. The “Average Tumor Volume” value ([7]; 10% CGT diet, 32 wks) was 1.02 ± 0.77 cm^3, the “reduction in percentage of rats with tumors” value ([7]; 10% CGT diet, average, between 18 and 28 days (so in the source)) was 70% and the overall tumor incidence ([7]; 10% CGT supplemented diet beginning 2 weeks post-DMBA treatment) was 33%. For the same compound, the “tumors per rat in rats with tumors” value ([7]; CGT diet supplemented group, essentially all rats with tumors) was “only one tumor per rat”.
